Reference: paper PMC9415822, “Amphotericin B-PEG Conjugates of ZnO Nanoparticles: Enhancement Antifungal Activity with Minimal Toxicity” (Pharmaceutics, 2022)
≈ marks a conversion by molar mass, not a printed value.

Columns and labels:
[1] = tested on: Cryptococcus neoformans ATCC 90112; assay: In vitro antifungal assay, broth microdilution (MIC/MFC), C. neoformans; format: cell-based
Experimental: The broth microdilution method was used to assess the antifungal susceptibility of free AMB, and ZnO, ZnO-AMB, and ZnO-AMB-PEG nanoparticles against Candida albicans ATCC 64548 and Cryptococcus neoformans ATCC 90112 according to the Clinical Laboratory and Standards Institute Guidelines (CLSI, 2015). The nanoparticle solutions were serially diluted in sterile saline to obtain dilutions ranging from 5.0 to 0.00625 µg/mL. Aliquots (100 µL) from different dilutions of different preparations were transferred to the wells of 96-well microtiter plate. Fresh cultures of the tested strains were suspended in RPMI 1640 provided with L-glutamine and MOPS at pH 7.0 to prepare suspensions with a turbidity approximating that of 0.5 McFarland Standard. The fungal suspensions were diluted 1:100 with RPMI 1640 to obtain cell density of 1 × 10^5 CFU/mL. Of the prepared fungal suspensions, 100 µL was added to all dilutions of nanoparticle preparations. The microtiter plates were incubated at 37 °C for 24 h for C. albicans, and 48 h for C. neoformans. The minimum inhibitory concentration (MIC) was considered as the lowest concentration that inhibited the visible turbidity. […] The minimum fungicidal concentration (MFC) was determined according to [23].

[2] = tested on: Candida albicans ATCC 64548; assay: In vitro antifungal assay, broth microdilution (MIC/MFC), C. albicans; format: cell-based; conditions: ATCC64548, SDA plates, 37 °C, 48 h
Experimental: The broth microdilution method was used to assess the antifungal susceptibility of free AMB, and ZnO, ZnO-AMB, and ZnO-AMB-PEG nanoparticles against Candida albicans ATCC 64548 and Cryptococcus neoformans ATCC 90112 according to the Clinical Laboratory and Standards Institute Guidelines (CLSI, 2015). The nanoparticle solutions were serially diluted in sterile saline to obtain dilutions ranging from 5.0 to 0.00625 µg/mL. Aliquots (100 µL) from different dilutions of different preparations were transferred to the wells of 96-well microtiter plate. Fresh cultures of the tested strains were suspended in RPMI 1640 provided with L-glutamine and MOPS at pH 7.0 to prepare suspensions with a turbidity approximating that of 0.5 McFarland Standard. The fungal suspensions were diluted 1:100 with RPMI 1640 to obtain cell density of 1 × 10^5 CFU/mL. Of the prepared fungal suspensions, 100 µL was added to all dilutions of nanoparticle preparations. […] The minimum inhibitory concentration (MIC) was considered as the lowest concentration that inhibited the visible turbidity. The experiment was repeated six times and both positive control (inoculated fungi in broth without any addition) and negative control (sterile broth without fungi) were included in the experiment. The minimum fungicidal concentration (MFC) was determined according to [23].

Male Wistar rats [3] = assay: In vivo toxicity: biochemical parameters (kidney and liver functions) after injection; design: species or system rat; conditions: 10 mg/kg intraperitoneal for seven days, eighth day
Experimental: (§1) Male Wistar rats weighing 180–220 g were used in this study. The animals were housed in rooms with controlled temperature (23 ± 1 °C) and relative humidity (55 ± 5%) and were allowed free access to water and food during acclimatization. Animals were fasted for 24 h before the experiments but could drink water ad libitum. The animal study protocol was approved by the Ethical Committee, Pharmacy College, Prince Sattam Bin Abdulaziz University, Al-Kharj, KSA (approval number: PHARM-11-10-2021).
(§2) Blood parameters including count of leucocytes (WBC) and red blood cell (RBC), and hemoglobin concentration (Hb), and hemocrit percentage were employed to evaluate the hematological toxicity associated with AMB. Furthermore, the kidney functions were assessed by measuring blood urea nitrogen (BUN) and serum creatinine. Hepatic functions were evaluated by the measure of aspartate transaminase (AST) and alanine transaminase (ALT). Four groups of male Wistar rats, each composed of 5 rats weighing approximately 200 g were used in this study. Three groups were intraperitoneally injected with free AMB, ZnO-AMB or ZnO-AMB-PEG (10 mg/kg body weight) for a continuous seven days. The fourth group was left uninjected as control group. On the eighth day, all rats were anesthetized and euthanized by decapitation for hematological and biochemical assays.

Male Wistar rats [4] = assay: In vivo toxicity: hematological parameters after injection; design: species or system rat; conditions: 10 mg/kg intraperitoneal for seven days, blood on eighth day
Experimental: as §1, §2

Structure (SMILES): C[C@@H]1[C@H](O)[C@@H](C)/C=C/C=C/C=C/C=C/C=C/C=C/C=C/[C@H](O[C@@H]2O[C@H](C)[C@@H](O)[C@H](N)[C@@H]2O)C[C@@H]2O[C@](O)(C[C@@H](O)C[C@@H](O)[C@H](O)CC[C@@H](O)C[C@@H](O)CC(=O)O[C@H]1C)C[C@H](O)[C@H]2C(=O)O [AMB, Amphotericin B]
- MIC ([1]; ATCC90112, RPMI 1640, 37 °C, 48 h): 0.05 µg/mL (≈ 0.0541 µM)
- MFC ([1]; ATCC90112, SDA plates, 37 °C, 72 h): 0.4 µg/mL (≈ 0.433 µM)
- MFC [2]: 0.6 µg/mL (≈ 0.649 µM)
- Kidney Functions BUN (Male Wistar rats [3]): 66.52 ± 12.46 mg%
- Kidney Functions Creatinine (Male Wistar rats [3]): 0.63 ± 0.11 mg%
- Liver Functions ALT (Male Wistar rats [3]): 100.49 ± 20.95 IU/L
- Liver Functions AST (Male Wistar rats [3]): 453.15 ± 120.19 IU/L
- Hb (Male Wistar rats [4]): 13.22 ± 0.95 g%
- Hematocrit (Male Wistar rats [4]): 37.01 ± 2.68%
- RBCs (Male Wistar rats [4]): 7.09 ± 0.61 ×10^6/μL
- WBCs (Male Wistar rats [4]): 17.90 ± 2.46 ×10^3/μL
